For orientation: IC50 means the concentration that inhibits the measured activity by half. High values mean a need for much substance, low ones inhibition by little substance.

SMILES strings stand for the structures.

In patent US9242981B2, “Fused pyrazole derivatives as novel ERK inhibitors” (Merck Sharp & Dohme Corp., priority 2010, dated 2016) one finds IC50 data, which are given here for 20 compounds.

The assay concerns the target Mouse ERK2 protein (Mus musculus (Mouse), UniProt P63085). Put plainly: Coupled MEK1/ERK2 IMAP assay or Active ERK2 IMAP assay. The class given is biochemical. Particulars: Table 1, class symbols, 30 μM ATP.

Mouse ERK2 protein, sequence (P63085 whole entry): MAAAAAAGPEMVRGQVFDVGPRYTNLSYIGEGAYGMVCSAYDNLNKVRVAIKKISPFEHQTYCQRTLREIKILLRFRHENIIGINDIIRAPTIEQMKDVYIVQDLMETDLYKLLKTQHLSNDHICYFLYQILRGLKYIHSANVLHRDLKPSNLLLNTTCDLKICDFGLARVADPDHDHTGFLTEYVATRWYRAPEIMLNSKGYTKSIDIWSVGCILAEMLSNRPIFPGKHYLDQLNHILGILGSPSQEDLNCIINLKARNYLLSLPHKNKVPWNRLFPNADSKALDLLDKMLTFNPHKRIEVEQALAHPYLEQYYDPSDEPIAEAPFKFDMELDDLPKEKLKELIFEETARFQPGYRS

`O=C(N[C@@H]1CCCN(Cc2c(F)cccc2C(F)(F)F)C1)N1CCc2[nH]nc(-c3ccncc3)c2C1` [Compound 68, N-[1-[[2-fluoro-6-(trifluoromethyl)phenyl]meth-yl]-3(R)-piperidinyl]-1,4,6,7-tetrahydro-3-(4-pyridinyl)-5H-pyrazolo[4,3-c]pyridine-5-carboxamide] had an IC50 of 21 to 100 nM. To `COc1ccccc1CN1CCC[C@@H](NC(=O)N2CCc3[nH]nc(-c4ccncc4)c3C2)C1` [Compound 70, 1,4,6,7-tetrahydro-N-[1-[(2-methoxyphenyl)methyl]-3(R)-piperidinyl]-3-(4-pyridinyl)-5H-pyrazolo[4,3-c]pyridine-5-carboxamide] belongs 21 to 100 nM; to `COC(=O)c1ccccc1CN1CCC[C@@H](NC(=O)N2CCc3[nH]nc(-c4ccncc4)c3C2)C1` [Compound 72, methyl 2-[[3(R)-[[[1,4,6,7-tetrahydro-3-(4-pyridinyl)-5H-pyrazolo[4,3-c]pyridin-5-yl]carbonyl]amino]-1-piperidinyl]methyl]benzoate], 21 to 100 nM.

As for `COc1cccc(OC)c1CN1CCC[C@@H](NC(=O)N2CCc3[nH]nc(-c4ccncc4)c3C2)C1` [Compound 73], the IC50 lay in the range of 101 to 1000 nM. `O=C(N[C@@H]1CCCN(Cc2ccccc2N2CCOCC2)C1)N1CCc2[nH]nc(-c3ccncc3)c2C1` [Compound 74, 1,4,6,7-tetrahydro-N-[1-[[2-(4-morpholinyl)phenyl]-methyl]-3(R)-piperidinyl]-3-(4-pyridinyl)-5H-pyrazolo[4,3-c]pyridine-5-carboxamide] gave an IC50 of 101 to 1000 nM.

Regarding `Cc1cc(-c2n[nH]c3c2CN(C(=O)N[C@@H]2CCCN(Cc4c(F)cccc4F)C2)CC3)ccn1` [Compound 81, N-[1-[(2,6-difluorophenyl)-methyl]-3(R)-piperidinyl]-1,4,6,7-tetrahydro-3-(2-methyl-4-pyridinyl)-5H-pyrazolo[4,3-c]pyridine-5-carboxamide], the IC50 lay in the range of 21 to 100 nM. Then `COC(=O)C1CC(NC(=O)N2CCc3[nH]nc(-c4ccnc(C)c4)c3C2)CN(Cc2c(F)cccc2F)C1` (centres unmarked) [Compound 82, methyl 1-[(2,6-difluorophenyl)methyl]-5-[[[1,4,6,7-tetrahydro-3-(2-methyl-4-pyridinyl)-5H-pyrazolo[4,3-c]pyridin-5-yl]carbonyl]amino]-3-piperidinecarboxylate], with 101 to 1000 nM. To `Cc1cc(-c2n[nH]c3c2CN(C(=O)NC2CC(C(=O)O)CN(Cc4c(F)cccc4F)C2)CC3)ccn1` (centres unmarked) [Compound 83, 1-[(2,6-difluorophenyl)-methyl]-5-[[[1,4,6,7-tetrahydro-3-(2-methyl-4-pyridinyl)-5H-pyrazolo[4,3-c]pyridin-5-yl]carbonyl]amino]-3-piperidinecarboxylic acid] belongs 101 to 1000 nM; to `Cc1cc(-c2n[nH]c3c2CN(C(=O)NC2CCCN(Cc4c(F)cccc4Cl)C2)CC3)ccn1` (centres unmarked) [Compound 85, N-[1-[(2-chloro-6-fluorophenyl)methyl]-3-piperidinyl]-1,4,6,7-tetrahydro-3-(2-methyl-4-pyridinyl)-5H-pyrazolo[4,3-c]pyridine-5-carboxamide], < 20 nM. Then `Cc1cc(-c2n[nH]c3c2CN(C(=O)NC2CC(CO)CN(Cc4c(F)cccc4F)C2)CC3)ccn1` (centres unmarked) [Compound 86, N-[1-[(2,6-difluorophenyl)-methyl]-5-(hydroxymethyl)-3-piperidinyl]-1,4,6,7-tetrahydro-3-(2-methyl-4-pyridinyl)-5H-pyrazolo[4,3-c]pyridine-5-carboxamide], with 21 to 100 nM. `Cc1cc(-c2n[nH]c3c2CN(C(=O)NC2(C)CCCN(Cc4c(F)cccc4F)C2)CC3)ccn1` (centres unmarked) [Compound 87, N-[1-[(2,6-difluorophenyl)-methyl]-3-methyl-3-piperidinyl]-1,4,6,7-tetrahydro-3-(2-methyl-4-pyridinyl)-5H-pyrazolo[4,3-c]pyridine-5-carboxamide]: the concentration for half-maximal inhibition (IC50) lay in the range of 101 to 1000 nM.

On to `Cc1cc(-c2n[nH]c3c2CN(C(=O)NC2(C)CCCN(Cc4csc5ccccc45)C2)CC3)ccn1` (centres unmarked) [Compound 88, N-[1-(benzo[b]thien-3-ylmethyl)-3-methyl-3-piperidinyl]-1,4,6,7-tetrahydro-3-(2-methyl-4-pyridinyl)-5H-pyrazolo[4,3-c]pyridine-5-carboxamide], for which the IC50 is 101 to 1000 nM. `Cc1cc(-c2n[nH]c3c2CN(C(=O)NC2CC(C)CN(Cc4c(F)cccc4F)C2)CC3)ccn1` (centres unmarked) [Compound 89, N-[1-[(2,6-difluorophenyl)-methyl]-5-methyl-3-piperidinyl]-1,4,6,7-tetrahydro-3-(2-methyl-4-pyridinyl)-5H-pyrazolo[4,3-c]pyridine-5-carboxamide] had an IC50 of 21 to 100 nM. Then `COc1cccc(F)c1CN1CC(C)CC(NC(=O)N2CCc3[nH]nc(-c4ccnc(C)c4)c3C2)C1` (centres unmarked) [Compound 90, N-[1-[(2-fluoro-6-methoxyphenyl)methyl]-5-methyl-3-piperidinyl]-1,4,6,7-tetrahydro-3-(2-methyl-4-pyridinyl)-5H-pyrazolo[4,3-c]pyridine-5-carboxamide], with 21 to 100 nM; and `Cc1cc(-c2n[nH]c3c2CN(C(=O)NC2CC(C)CN(Cc4c(F)cccc4Cl)C2)CC3)ccn1` (centres unmarked) [Compound 91, N-[1-[(2-chloro-6-fluorophenyl)methyl]-5-methyl-3-piperidinyl)-1,4,6,7-tetrahydro-3-(2-methyl-4-pyridinyl)-5H-pyrazolo[4,3-c]pyridine-5-carboxamide], with < 20 nM. To `CCC1(NC(=O)N2CCc3[nH]nc(-c4ccnc(C)c4)c3C2)CCCN(Cc2c(F)cccc2F)C1` (centres unmarked) [Compound 92, N-[1-[(2,6-difluorophenyl)-methyl]-3-ethyl-3-piperidinyl]-1,4,6,7-tetrahydro-3-(2-methyl-4-pyridinyl)-5H-pyrazolo[4,3-c]pyridine-5-carboxamide] belongs 101 to 1000 nM. `CCC1(NC(=O)N2CCc3[nH]nc(-c4ccnc(C)c4)c3C2)CCCN(Cc2csc3ccccc23)C1` (centres unmarked) [Compound 93, N-[1-(benzo[b]thien-3-ylmethyl)-3-ethyl-3-piperidinyl]-1,4,6,7-tetrahydro-3-(2-methyl-4-pyridinyl)-5H-pyrazolo[4,3-c]pyridine-5-carboxamide] gave an IC50 of 101 to 1000 nM. The compound `Cc1cc(-c2n[nH]c3c2CN(C(=O)NC2CC(C)CN(Cc4c(C)cccc4C)C2)CC3)ccn1` (centres unmarked) [Compound 94, N-[1-[(2,6-dimethylphenyl)-methyl]-5-methyl-3-piperidinyl]-1,4,6,7-tetrahydro-3-(2-methyl-4-pyridinyl)-5H-pyrazolo[4,3-c]pyridine-5-carboxamide] came in with an IC50 of 21 to 100 nM.

For `Cc1cc(-c2n[nH]c3c2CN(C(=O)NC2CC(C)CN(Cc4c(F)cccc4C(F)(F)F)C2)CC3)ccn1` (centres unmarked) [Compound 95, N-[1-[[2-fluoro-6-(trifluoro-methyl)phenyl]methyl]-5-methyl-3-piperidinyl]-1,4,6,7-tetrahydro-3-(2-methyl-4-pyridinyl)-5H-pyrazolo[4,3-c]pyridine-5-carboxamide], the IC50 is 101 to 1000 nM. Then `Cc1cc(-c2n[nH]c3c2CN(C(=O)NC2CC(C)CN(Cc4cnc5ccccc5c4)C2)CC3)ccn1` (centres unmarked) [Compound 96, 1,4,6,7-tetrahydro-3-(2-methyl-4-pyridinyl)-N-[5-methyl-1-(3-quinolinylmethyl)-3-piperidinyl]-5H-pyrazolo[4,3-c]pyridine-5-carboxamide], with 101 to 1000 nM.
